Where two headings read alike, the source gives them in different places. Where no end group is shown, it is not given here.
How the values were obtained:
[1] = SPR (BIAcore) binding to immobilized heparin; details: for Dissociation rate (Koff): BIAcore X100, HBS-EP+ pH 7.4; for Association rate (Kon): BIAcore X100, HBS-EP+ pH 7.4, 2 min injection, 30 μl/min
Description: Next, we exploited surface plasmon resonance (SPR) analysis to assess the capacity of CXCL4^47–70 and CXCL4L1^47–70 to bind heparin immobilized to a BIAcore sensorchip, a model that mimics the binding of proteins to heparan sulphate proteoglycans associated to the cell surface. When increasing concentrations of the two peptides were injected onto the heparin surface, sensorgram overlays (not shown) allowed the calculation of association (Kon) and dissociation (Koff) rates and of Kd (as Koff/Kon ratio, Table 1). Also, equilibrium binding data were used to generate the saturation curves shown in Figure 8A and used to calculate a Kd value independently from kinetic parameters (Table 1).
SPR measurements were performed on a BIAcore X100 instrument (GE-Healthcare, Milwaukee, WI). Research-grade SA sensorchip was used. For the study of the interaction of heparin with CXCL4^47–70 and CXCL4L1^47–70, heparin was immobilized to a BIAcore sensorchip. Briefly, 13600 Da unfractionated heparin was biotinylated at its reducing end and immobilized onto the SA streptavidin-coated sensorchip. These experimental conditions allowed the immobilization of 200 resonance units (RU) equal to 14.7 fmol/mm^2 of heparin. A sensorchip coated with streptavidin alone was used as a reference and for blank subtraction. The peptides were dissolved in 10 mM HEPES buffer pH 7.4 containing 150 mM NaCl, 3 mM EDTA, 0.05% surfactant P20 (HBS-EP+) and injected at different concentrations over the heparin or streptavidin surfaces for 2 min at a flow rate of 30 μl/min and then washed until dissociation was observed. After each run, the sensorchip was regenerated by injection of HBS-EP+ containing 2.0 M NaCl.

[2] = test system: human retinal microvascular endothelial cells (HMVEC); test: HMVEC MTT proliferation assay; format: cell-based; details: control PI=1, 3 to 4 days, MTT, mean ± s.e.m.; for Proliferation index (PI), baseline (single stimulus): no growth factor
Description: (§1) First, HMVEC and HLEC were seeded at 5 × 10^3 cells/well in EBM-2 + 1% FCS in a 96-well plate, whereas MDA-MB-231 were starved of growth factors overnight by replacing their growth medium with DMEM (serum-free) prior to seeding the tumor cells at 15 × 10^2 cells/well in DMEM + 1% FCS. As for the rest of the assay, the same protocol applies to all cells. Once adherent, cells were incubated with different concentrations of the peptides CXCL4^47–70 and CXCL4L1^47–70 as single stimuli or in combination with recombinant human EGF (3 ng/ml; R&D Systems, Minneapolis, MN) at 37°C/5% CO2. All conditions were tested in triplicate or quadruplicate. After 3 to 4 days, stimulation medium was removed and a sterile MTT solution was added [0.04 g/100 ml thiazolyl blue (Sigma-Aldrich, St. Louis, MO) in 20% PBS/80% RPMI without phenol red (Lonza)] for 3 to 4 hours. The formed formasan crystals were dissolved by replacing the MTT solution with acidic propanol (0.04 M HCl, 0.1% (v/v) Nondet P-40 in absolute isopropanol) and shaking the plate, shielded from light, for 10 minutes. Optical density (OD) was determined at 570 nm and 630 nm. The obtained ODs were processed to proliferation indexes (PI), expressed relative to appropriate buffer controls, i.e. ΔOD570–630X over ΔOD570–630CO.

[3] = test system: CXCR3A; test: Calcium signaling in CXCR3A-transfectants; format: cell-based; details: CHO/CXCR3A, one representative experiment out of three; for calcium signal via CXCR3A: 2 μg/ml, fura 2, spectrofluorometer; for inhibition of CXCL10-induced calcium signaling (desensitization): peptide 2 μg/ml, CXCL10 5 ng/ml added 100 s later, fura 2
Description: We further tried to reveal the mode of action of CXCL4^47–70 and CXCL4L1^47–70. First, we excluded that either peptide still binds/activates one of the CXCR3 isoforms, the receptors for intact CXCL4 and CXCL4L1. […]
inhibit signaling by intact CXCL10. To study interaction of CXCL447–70 and CXCL4L147–70 with CXCR3A, CHO cells stably transfected with CXCR3A were loaded with the fluorescent dye fura 2 (Struyf et al. J. Immunol. 2009, 182:666). Changes in the intracellular Ca2+ concentrations ([Ca2+]i) in response to CXCL447–70 or CXCL4L147–70 treatment were monitored using a spectrofluorometer. The line in the spectra indicates the fluorescence intensity ratio (i.e. the fluorescence intensity measured after excitation at 340 nm divided by the fluorescence intensity measured after excitation at 380 nm). The results shown (one representative experiment out of three) illustrate a desensitization experiment, in which CHO/CXCR3A cells were stimulated first with a peptide (2 µg/ml) and 100 s later with intact CXCL10 […]
peptides induced a rise in [Ca2+]i. When the cells were stimulated with 5 ng/ml intact CXCL10 100 s after peptide treatment, the response […]
interact with CXCR3A. Arrows indicate the time of addition of the stimulus.
(also on this page, place not known: www.impactjournals.com/oncotarget/ Oncotarget, Supplementary Materials 2014 CXCL4 47–70 CXCL4L1 47–70 CXCL4 47–70 CXCL4L1 47–70 CXCL4 47–70) […]

[4] = test system: CHO/CXCR3A cells; test: CXCR3A binding (flow cytometry); details: NH2-terminally biotinylated peptides, 3 to 3000 ng/ml, data not shown
Description: We further tried to reveal the mode of action of CXCL4^47–70 and CXCL4L1^47–70. First, we excluded that either peptide still binds/activates one of the CXCR3 isoforms, the receptors for intact CXCL4 and CXCL4L1.

[5] = test system: human dermal lymphatic microvascular endothelial cells (HLEC); test: HLEC MTT proliferation assay; format: cell-based; details: control PI=1, 3 to 4 days, MTT, mean ± s.e.m., n=4
Description: as §1

[6] = test system: endothelial cell; details: cited from earlier work
Description: We investigated whether CXCL4^47–70 and CXCL4L1^47–70 counteracted other growth factors with similar efficiency. Consistent with previous work, both CXCL4^47–70 and CXCL4L1^47–70 (0.4 μg/ml) reduced FGF2-induced GM7373 prolifera ...

[7] = test system: MDA-MB-231 cells; test: MDA-MB-231 MTT proliferation assay; format: cell-based, human; details: control PI=1, DMEM + 1% FCS, 3 to 4 days, mean ± s.e.m.
Description: as §1

[8] = BIAcore X100, HBS-EP+ pH 7.4, Scatchard plot analysis of equilibrium binding data, read-out: Kd at equilibrium
[9] = BIAcore X100, HBS-EP+ pH 7.4, from Koff/Kon ratio, read-out: Kd (Koff/Kon)
[10] = BIAcore X100, kinetic and equilibrium values taken together, read-out: Kd (range over both methods)
[11] = peptide 0.3 μg/ml + EGF 3 ng/ml, n=7, p=0.015 (CXCL4^47–70), p=0.041 (CXCL4L1^47–70) versus EGF
[12] = peptide 1 μg/ml + EGF 3 ng/ml, n=7, p=0.003 (CXCL4^47–70), p=0.015 (CXCL4L1^47–70) versus EGF
[13] = peptide 1 μg/ml, n=8, p=0.011 (CXCL4^47–70), p=0.043 (CXCL4L1^47–70)
[14] = peptide 3 μg/ml + EGF 3 ng/ml, n=6, p=0.008 (CXCL4^47–70), n=7, p=0.041 (CXCL4L1^47–70) versus EGF
[15] = peptide 3 μg/ml, n=6, p=0.001 (CXCL4^47–70), n=7, p=0.009 (CXCL4L1^47–70)
[16] = peptide 0.3 μg/ml, p=0.030 (CXCL4^47–70), p=0.312 (CXCL4L1^47–70)
[17] = peptide 3 μg/ml, n=7 in triplicate, p<0.001
[18] = peptide 10 μg/ml, in triplicate, n=3, p<0.001 (CXCL4^47–70), n=7, p=0.01 (CXCL4L1^47–70)

Dissociation rate (Koff) [1] | Association rate (Kon) [1] | Kd [1, 8] | Kd [1, 9] | Kd [1, 10] | Substance | Proliferation index (PI), EGF-stimulated [2, 11] | Proliferation index (PI), EGF-stimulated [2, 12] | Proliferation index (PI), baseline (single stimulus) [2, 13] | Proliferation index (PI), EGF-stimulated [2, 14] | Proliferation index (PI), baseline (single stimulus) [2, 15] | calcium signal via CXCR3A [3] | inhibition of CXCL10-induced calcium signaling (desensitization) [3] | specific binding to CHO/CXCR3A [4] | Proliferation index (PI), baseline [5, 16] | Proliferation index (PI), baseline ([5]; peptide 1 μg/ml, p=0.030) | Proliferation index (PI), baseline ([5]; peptide 3 μg/ml, p=0.030) | block of FGF2-induced endothelial cell motility and proliferation [6] | Proliferation index (PI) [7, 17] | Proliferation index (PI) [7, 18] | also measured
0.053 s⁻¹ | 52000 M⁻¹ s⁻¹ | 1200 nM | 1000 nM | 1000 to 1200 nM | CXCL4L1^47–70: synthetic human carboxy-terminal peptide restricted to the last 24 amino acids of CXCL4L1, Fmoc chemistry | 1.17 ± 0.06 | 1.05 ± 0.07 | 0.86 ± 0.12 | 0.98 ± 0.13 | 0.70 ± 0.09 | Nor could we detect any calcium signal | neither peptide (2 μg/ml) was capable of inhibiting calcium signaling | could not detect specific binding | 0.90 ± 0.05 | 0.82 ± 0.05 | 0.66 ± 0.04 | retained the ability to block FGF2-induced endothelial cell motility and proliferation | 0.78 ± 0.04 | 0.76 ± 0.08 | calcium signal via CXCR3A ([3]; listed as CXCL4L147–70): do not induce calcium signaling via CXCR3A; inhibition of CXCL10-induced calcium signaling (desensitization) ([3]; listed as CXCL4L147–70): equal to the signal obtained after buffer stimulation; Proliferation index (PI) ([7]; peptide 30 μg/ml, n=3 in triplicate, p<0.001): 0.26 ± 0.04
0.011 s⁻¹ | 670000 M⁻¹ s⁻¹ | 72 nM | 16 nM | 16 to 72 nM | CXCL4^47–70: synthetic human carboxy-terminal peptide restricted to the last 24 amino acids of CXCL4, Fmoc chemistry (NGRKICLDLQAPLYKKIIKKLLES; not fully specified (N-terminus)) | 1.13 ± 0.07 | 0.96 ± 0.06 | 0.77 ± 0.08 | 0.93 ± 0.07 | 0.59 ± 0.09 | Nor could we detect any calcium signal | neither peptide (2 μg/ml) was capable of inhibiting calcium signaling | could not detect specific binding | 0.70 ± 0.06 | 0.69 ± 0.06 | 0.37 ± 0.04 | retained the ability to block FGF2-induced endothelial cell motility and proliferation | 0.66 ± 0.04 | 0.21 ± 0.05 | calcium signal via CXCR3A ([3]; listed as CXCL447–70): do not induce calcium signaling via CXCR3A; inhibition of CXCL10-induced calcium signaling (desensitization) ([3]; listed as CXCL447–70): equal to the signal obtained after buffer stimulation; Proliferation index (PI) ([7]; peptide 0.3 μg/ml, n=7 in triplicate, p=0.023): 0.87 ± 0.04
